Source: patent EP0080284A1, “Derivatives of clavulanic acid, processes for their preparation and their use” (BEECHAM GROUP PLC, priority 1981, dated 1983)

Legend:
Assay in all cases: standard MIC test, synergist in combination with amoxycillin
Type in all cases: cell-based
Conditions in all cases: substance alone, unit assumed
[1] = tested on: E.coli JT39
Protocol: (§1) In a standard MIC test the compound of Example 2 was tested as a synergist in combination with amoxycillin: […]

[2] = tested on: Staph Aureus Russell
Protocol: as §1

[3] = tested on: Klebsiella Aerogenes E70
Protocol: as §1

| SMILES | MIC [1] | MIC [2] | MIC [3] |
| --- | --- | --- | --- |
| CC1(C)S[C@@H]2[C@H](NC(=O)[C@H](N)c3ccc(O)cc3)C(=O)N2[C@H]1C(=O)O [Amoxycillin] | 2000 µg/mL | 500 µg/mL | 500 µg/mL |
| COC(OC)OC/C=C1\O[C@@H]2CC(=O)N2[C@H]1C(=O)O [Ex. 2, Lithium 9-O-(dimethoxymethyl)clavulanate] | 31 µg/mL | 62 µg/mL | 62 µg/mL |
